Experimental data from ChEMBL document CHEMBL1138868, “Interpreting steep dose-response curves in early inhibitor discovery” (J Med Chem, 2006).

Key:
Beta-lactamase [1] = biological target: T1, Beta-lactamase (Escherichia coli K-12, UniProt P00811); assay: Inhibition of 1 nM AmpC beta lactamase
Beta-lactamase [2] = biological target: T1, Beta-lactamase; assay: Inhibition of 10 nM AmpC beta lactamase
Beta-lactamase [3] = biological target: T1, Beta-lactamase; assay: Inhibition of 20 nM AmpC beta lactamase
Beta-lactamase [4] = biological target: T1, Beta-lactamase; assay: Inhibition of 30 nM AmpC beta lactamase

T1 sequence (P00811 whole entry): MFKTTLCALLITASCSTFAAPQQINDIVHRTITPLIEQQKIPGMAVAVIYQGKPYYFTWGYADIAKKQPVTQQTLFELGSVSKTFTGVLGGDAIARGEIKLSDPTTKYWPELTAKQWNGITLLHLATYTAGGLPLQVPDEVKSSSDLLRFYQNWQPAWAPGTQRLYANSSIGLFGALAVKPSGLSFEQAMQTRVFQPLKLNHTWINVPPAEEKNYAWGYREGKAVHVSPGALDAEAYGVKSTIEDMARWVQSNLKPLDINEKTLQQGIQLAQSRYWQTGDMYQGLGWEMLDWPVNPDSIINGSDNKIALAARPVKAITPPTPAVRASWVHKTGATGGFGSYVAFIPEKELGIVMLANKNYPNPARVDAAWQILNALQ

## O=C1OC(c2ccc(O)cc2)(c2ccc(O)cc2)c2c(I)c(I)c(I)c(I)c21 [TETRAIODOPHENOLPHTHALEINE]
Beta-lactamase [1]
  IC50: 3.8 µM
Beta-lactamase [2]
  IC50: 20 µM
Beta-lactamase [3]
  IC50: 19 µM

## CC(=O)c1c(O)c(C)c(O)c(Cc2c(O)c3c(c(C(=O)/C=C/c4ccccc4)c2O)OC(C)(C)C=C3)c1O [ROTTLERIN]
Beta-lactamase [1]
  IC50: 1.8 µM
Beta-lactamase [2]
  IC50: 21 µM
Beta-lactamase [4]
  IC50: 76 µM
